Values joined by “and” are separate entries in the source; they are usually repeats but may differ in a detail not shown here. Equal values may be shown once. Toxic doses and inconclusive results are not listed.

In this assay the test system is P388 leukemia ip, CD2F1 mice, survival T/C. The experiment in a line: NCI In Vivo Anticancer Drug Screen. Data for tumor model P388 Leukemia (intraperitoneal) in CD2F1 (CDF1) mice. The note with it: endpoint: median survival time, higher = longer survival. In outline:
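Mice carrying the transplanted tumor received test compound or vehicle. Survival was recorded in each group, and the value is the treated-group measurement divided by that of the vehicle-treated control group.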

The mark [1] stands for this setting: dose: 60.0 mg/kg/injection, schedule: Q01DX005 (ip), vehicle: saline with Tween-80.
The mark [2] stands for this setting: dose: 120.0 mg/kg/injection, schedule: Q01DX005 (ip), vehicle: saline with Tween-80.
Where [3] appears, read: dose: 240.0 mg/kg/injection, schedule: Q01DX005 (ip), vehicle: saline with Tween-80.
Setting [4] is: dose: 50.0 mg/kg/injection, schedule: Q01DX005 (ip), vehicle: saline with Tween-80.
Setting [5] is: dose: 100.0 mg/kg/injection, schedule: Q01DX005 (ip), vehicle: saline with Tween-80.
Where [6] appears, read: dose: 200.0 mg/kg/injection, schedule: Q01DX005 (ip), vehicle: saline with Tween-80.
[7] abbreviates: dose: 60.0 mg/kg/injection, schedule: Q01DX005 (ip), vehicle: saline.
The mark [8] stands for this setting: dose: 120.0 mg/kg/injection, schedule: Q01DX005 (ip), vehicle: saline.
Setting [9] is: dose: 240.0 mg/kg/injection, schedule: Q01DX005 (ip), vehicle: saline.

With `COC(=O)C1(F)C(=O)NC(=O)NC1O` (centres undefined), the T/C (dose: 7.5 mg/kg/injection, schedule: Q01DX005 (ip), vehicle: saline) was 100 % of control; the T/C (dose: 15.0 mg/kg/injection, schedule: Q01DX005 (ip), vehicle: saline) is 102 % of control; the T/C (dose: 30.0 mg/kg/injection, schedule: Q01DX005 (ip), vehicle: saline) was 100 % of control.
With `CC(C)(C)OSc1ccccc1`, the T/C reads like this: (dose: 100.0 mg/kg/injection, schedule: Q04DX002 (ip), vehicle: Klucel (hydroxypropylcellulose) (HPC)) 101 % of control; (dose: 200.0 mg/kg/injection, schedule: Q04DX002 (ip), vehicle: Klucel (hydroxypropylcellulose) (HPC)) 97 % of control; (dose: 400.0 mg/kg/injection, schedule: Q04DX002 (ip), vehicle: Klucel (hydroxypropylcellulose) (HPC)) 102 % of control.
In the case of `CCOC(=O)C(NC(=O)C1(O)C(O)C2(CC)C=CCN3CCC4(c5cc(C6(C(=O)OC)CC7CN(CCc8c6[nH]c6ccccc86)CC(O)(CC)C7)c(OC)cc5N(C)C14)C32)C(C)CC` (centres undefined), the T/C (dose: 1.0 mg/kg/injection, schedule: Q01DX001 (ip), vehicle: saline) was 124 % of control; the T/C (dose: 2.0 mg/kg/injection, schedule: Q01DX001 (ip), vehicle: saline) was 155 % of control; the T/C (dose: 4.0 mg/kg/injection, schedule: Q01DX001 (ip), vehicle: saline) was 181 % of control; the T/C (dose: 8.0 mg/kg/injection, schedule: Q01DX001 (ip), vehicle: saline) is 172 % of control and 203 % of control; the T/C (dose: 16.0 mg/kg/injection, schedule: Q01DX001 (ip), vehicle: saline) is 191 % of control.
Regarding `COC1=CCC(CCNC(=O)c2cc3c(cc2[N+](=O)[O-])OCO3)=CC1`, the T/C runs as follows: under setting [1], 101 % of control; under setting [2], 93 % of control; under setting [3], 98 % of control.
Consider `CCOC(=O)N1c2ccccc2C(c2ccccc2)=NC1(C#N)CC` (centres undefined), for which the T/C by setting is: under setting [4], 96 % of control; under setting [5], 96 % of control; under setting [6], 97 % of control.
Turning to `O=C1C[C@@H]2OC3=C(C(=O)CCC3)[C@@H]2O1`, the T/C is 102 % of control under setting [7], 121 % of control under setting [8] and 119 % of control under setting [9].
For `O=C(O)C(=O)O.O=C([O-])C(=O)O.O=C([O-])C(=O)O.O=C([O-])C(=O)[O-].[K+].[U]`, the T/C is 100 % of control (dose: 1.56 mg/kg/injection, schedule: Q01DX009 (ip), vehicle: saline) and 100 % of control (dose: 3.13 mg/kg/injection, schedule: Q01DX009 (ip), vehicle: saline).
As to `CCCOc1ccc(C(=O)NCc2cccnc2)cc1C(=O)NCc1cccnc1`, the T/C under setting [4] was 100 % of control, the T/C under setting [5] was 99 % of control and the T/C under setting [6] was 100 % of control.
For the compound `O=C(Nc1cccc(S(=O)(=O)F)c1)Oc1ccc([N+](=O)[O-])cc1`, the T/C is 113 % of control under setting [1], 111 % of control under setting [2] and 93 % of control under setting [3].
As to `CSC(C(OC(C)=O)C(OC(C)=O)C(OC(C)=O)C(COC(C)=O)OC(C)=O)n1cnc2c(=S)nc[nH]c21` (centres undefined), the T/C under setting [4] was 101 % of control, the T/C under setting [5] is 92 % of control and the T/C under setting [6] is 89 % of control.
Regarding `CN=C1N[N+]2=CCCCC2S1` (centres undefined), the T/C is, setting by setting: (dose: 12.5 mg/kg/injection, schedule: Q04DX003 (ip), vehicle: saline) 102 % of control; (dose: 15.0 mg/kg/injection, schedule: Q01DX009 (ip), vehicle: saline) 100 % of control and 101 % of control; (dose: 25.0 mg/kg/injection, schedule: Q04DX003 (ip), vehicle: saline) 104 % of control; (dose: 30.0 mg/kg/injection, schedule: Q01DX009 (ip), vehicle: saline) 92 % of control and 97 % of control; (dose: 50.0 mg/kg/injection, schedule: Q04DX003 (ip), vehicle: saline) 97 % of control; (dose: 60.0 mg/kg/injection, schedule: Q01DX009 (ip), vehicle: saline) 114 % of control and 96 % of control. Under “dose: 120.0 mg/kg/injection, schedule: Q01DX009 (ip), vehicle: saline”, the T/C was 120 % of control and 96 % of control.
Consider `Cc1c(C)c(C)c(S(=O)(=O)N2CCN(S(=O)(=O)c3c(C)c(C)c(C)c(C)c3C)CC2)c(C)c1C`, for which the T/C is 100 % of control under setting [4], 97 % of control under setting [5] and 96 % of control under setting [6].
Turning to `COc1cccc2c1C(=O)c1c(O)c3c(c(O)c1C2=O)C[C@@](O)(C(C)=O)C[C@@H]3OC1CC([N+]([O-])(Cc2ccccc2)Cc2ccccc2)C(O)C(C)O1` (some centres undefined), the T/C runs as follows: (dose: 3.13 mg/kg/injection, schedule: Q04DX003 (ip), vehicle: distilled water + Tween-80) 114 % of control; (dose: 6.25 mg/kg/injection, schedule: Q04DX003 (ip), vehicle: distilled water + Tween-80) 108 % of control and 121 % of control; (dose: 12.5 mg/kg/injection, schedule: Q04DX003 (ip), vehicle: distilled water + Tween-80) 123 % of control; (dose: 25.0 mg/kg/injection, schedule: Q04DX003 (ip), vehicle: distilled water + Tween-80) 150 % of control and 183 % of control; (dose: 50.0 mg/kg/injection, schedule: Q04DX003 (ip), vehicle: distilled water + Tween-80) 185 % of control and 212 % of control; (dose: 100.0 mg/kg/injection, schedule: Q04DX003 (ip), vehicle: distilled water + Tween-80) 237 % of control.
Regarding `Cn1c(Cl)c(/C=N\Nc2ccc([N+](=O)[O-])cc2)c2ccccc21`, the T/C runs as follows: (dose: 50.0 mg/kg/injection, schedule: Q01DX001 (ip), vehicle: Klucel (hydroxypropylcellulose) (HPC)) 89 % of control; (dose: 100.0 mg/kg/injection, schedule: Q01DX001 (ip), vehicle: Klucel (hydroxypropylcellulose) (HPC)) 89 % of control; (dose: 200.0 mg/kg/injection, schedule: Q01DX001 (ip), vehicle: Klucel (hydroxypropylcellulose) (HPC)) 100 % of control.
As to `O=C(O)C1=C/C(=C(/c2ccccc2)c2cc(C(=O)O)c(O)c3ccccc23)c2ccccc2C1=O`, the T/C runs as follows: (dose: 50.0 mg/kg/injection, schedule: Q01DX009 (ip), vehicle: saline) 99 % of control; under setting [7], 104 % of control; (dose: 100.0 mg/kg/injection, schedule: Q01DX009 (ip), vehicle: saline) 100 % of control; under setting [8], 103 % of control; (dose: 200.0 mg/kg/injection, schedule: Q01DX009 (ip), vehicle: saline) 103 % of control; under setting [9], 95 % of control.
Regarding `C=CC(OC(C)=O)OC(C)=O`, the T/C was 109 % of control (dose: 8.0 mg/kg/injection, schedule: Q01DX009 (ip), vehicle: saline); 118 % of control (dose: 12.0 mg/kg/injection, schedule: Q01DX009 (ip), vehicle: saline); 109 % of control (dose: 18.0 mg/kg/injection, schedule: Q01DX009 (ip), vehicle: saline).
With `N=C1N=Nc2nc(C(C(=O)c3cccs3)c3nc4n(c3O)C(=N)N=N4)c(O)n21` (centres undefined), the T/C was 97 % of control under setting [1], 100 % of control under setting [2] and 106 % of control under setting [3].
Consider `CCOc1cc(CC[N+](C)(C)C)cc2c1ccc1ccc(OC)c(OC)c12`, for which the T/C was 99 % of control (dose: 6.25 mg/kg/injection, schedule: Q01DX005 (ip), vehicle: saline with Tween-80); 100 % of control (dose: 12.5 mg/kg/injection, schedule: Q01DX005 (ip), vehicle: saline with Tween-80); 96 % of control (dose: 25.0 mg/kg/injection, schedule: Q01DX005 (ip), vehicle: saline with Tween-80).
Turning to `O=C1CCc2ccccc2C1C(=O)CC(O)(c1ccccc1)c1ccccc1` (centres undefined), the T/C is, setting by setting: (dose: 12.5 mg/kg/injection, schedule: Q01DX009 (ip), vehicle: saline sonified) 95 % of control; (dose: 25.0 mg/kg/injection, schedule: Q01DX009 (ip), vehicle: saline sonified) 100 % of control; (dose: 50.0 mg/kg/injection, schedule: Q01DX009 (ip), vehicle: saline sonified) 95 % of control.
Regarding `CC(=O)OC1CC(O)C23COC(O)C1(C)C2CC(O)C1(C)C3C(=O)C(O)C2(C)C(c3ccoc3)CC3OC321` (centres undefined), the T/C was 91 % of control (dose: 0.13 mg/kg/injection, schedule: Q01DX009 (ip), vehicle: saline + alcohol); 93 % of control (dose: 0.25 mg/kg/injection, schedule: Q01DX009 (ip), vehicle: saline + alcohol); 90 % of control (dose: 0.5 mg/kg/injection, schedule: Q01DX009 (ip), vehicle: saline + alcohol); 94 % of control (dose: 1.0 mg/kg/injection, schedule: Q01DX009 (ip), vehicle: saline + alcohol); 104 % of control (dose: 1.25 mg/kg/injection, schedule: Q01DX009 (ip), vehicle: Klucel (hydroxypropylcellulose) (HPC)); 95 % of control (dose: 2.5 mg/kg/injection, schedule: Q01DX009 (ip), vehicle: Klucel (hydroxypropylcellulose) (HPC)).

The values are drawn from PubChem BioAssay AID330 (DTP/NCI, 2004).
